Measurements taken from US20130131161A1, “METHODS AND COMPOSITIONS FOR CARDIOVASCULAR DISEASES AND CONDITIONS” (priority 2009, published 2013).

Tested on: Human umbilical vein endothelial cells (HUVECs)
Experiment: Comparison of LA-419 and ISDN: NO and ONOO− release from HUVECs measured with tandem electrochemical nanosensors (Example 1)
Format: cell-based
Conditions: for NO release (mean ± S.D.) / ONOO− release (mean ± S.D.): 500 nM, 12 hours, then CaI (1.0 μM); for decrease in NO release / increase in levels of ONOO− / decrease in the NO/ONOO− ratio: pretreatment 12 h
Procedure: Human umbilical vein endothelial cells (HUVECs) were isolated into primary cultures and purchased as proliferating cells from Clonetics (San Diego, Calif.). All cell culture donors were healthy, with no pregnancy or prenatal complications. The cultured cells were incubated in 95% air/5% CO2 at 37° C. and passage by an enzymatic (trypsin) procedure. The confluent cells (4 to 5×10^5 cells per 35-mm dish) were placed with minimum essential medium containing 3 mM L-arginine and 0.1 mM BH4 [(6R)-5,6,7,8-tetrahydrobiopterin]. Before the experiments, the cells (from second or third passage) were rinsed twice with Tyrode-HEPES buffer with 1.8 mM CaCl2. ISDN was obtained from Sigma-Aldrich.
Concurrent measurements of NO and ONOO^− were carried out with tandem electrochemical nanosensors combined into one working unit with a total diameter of 200-500 nm (FIG. 1). Their design was based on previously developed and well-characterized chemically modified carbon-fiber technology (Malinski and Taha, 1992; Lvovich and Scheeline, 1997). Each of the nanosensors was made by depositing a sensing material on the tip of a carbon fiber (length 4-5 μm, diameter 0.2-0.5 μm). The fibers were sealed with nonconductive epoxy and electrically connected to copper wires with conductive silver epoxy. A conductive film of polymeric nickel (II) tetrakis(3-methoxy-4-hydroxyphenyl)porphyrin for the NO-sensor and polymeric film of Mn (III) [2.2]paracyclophanylporphyrin was used for the ONOO^−-sensor.
A module of NO/ONOO^− nanosensors (diameter 1-2 μm) with a platinum wire (0.1 mm) counter electrode and saturated calomel reference electrode (SCE) were applied. Differential pulse voltammetry (DPV) and amperometry were performed with a computer-based Gamry VFP600 multichannel potentiostat. DPV was used to measure the basal NO and ONOO^− concentrations, and amperometry was used to measure changes in NO and ONOO^− concentrations from its basal level with time. The DPV current at the peak potential characteristic for NO oxidation (0.65 V) and ONOO^− reduction (−0.45 V) was directly proportional to the local concentrations of these compounds in the immediate vicinity of the sensor. Linear calibration curves (current vs. concentration) were constructed for each sensor from 10 nM to 3 μM before and after measurements with aliquots of NO and ONOO^− standard solutions, respectively. The detection limit of the sensors was 1.0 nM.
The quantification of each analyte (concentration in nM) was performed using a maximum current from amperograms and standard calibration curves. A reproducibility of measurements with nanosensors is relatively high (between 5-12%). […] The sensors were slowly raised 5±2 μm from the surface of a single endothelial cell. The eNOS agonist, calcium ionophore A23187 (CaI) as well as the different drugs were then added to the surrounding media at the cell surface with a nanoinjector that was also positioned by a computer controlled-micromanipulator.
The HUVEC preparation is stable over the course of these experiments with the cells remaining viable in culture for >24 hours. Under non-stimulating conditions, basal levels of NO release are very low (<30 nM). Measurement of NO release as a function of treatment was conducted in individual endothelial cells. Multiple measurements of NO release can be conducted on single cells following a brief refractory period. For robust statistical analysis, separate cells were used for each concentration and type of drug used in these analyses.

[1] = HUVECs from Non-Hispanic Whites

SMILES: O=[N+]([O-])O[C@H]1CO[C@H]2[C@@H]1OC[C@H]2O[N+](=O)[O-] [ISDN, isosorbide dinitrate]
- NO release (mean ± S.D.) (HUVECs from African Americans): 218 ± 16 nM
- ONOO− release (mean ± S.D.) (HUVECs from African Americans): 552 ± 11 nM
- NO release (mean ± S.D.) [1]: 343 ± 11 nM
- ONOO− release (mean ± S.D.) [1]: 323 ± 9 nM
- decrease in NO release (HUVECs from African Americans): 12%
- increase in levels of ONOO− (HUVECs from African Americans): 18%
- decrease in the NO/ONOO− ratio (HUVECs from African Americans, p<0.05): 25%
- decrease in NO release (HUVECs from non-Hispanic whites): 11%
- decrease in the NO/ONOO− ratio (HUVECs from non-Hispanic whites, p<0.01): 23%
- increase in levels of ONOO− (HUVECs from whites): 16%
